The text below walks through data of PubChem BioAssay (NCI).

What all share (test): NCI-60 cell line screen, 48 h
In assay [1] the test system is DMS 114 small cell lung.
For assay [2], the system named is KM20L2 colon.
The test system of assay [3] is LOX IMVI melanoma.
Assay [4] concerns OVCAR-5 ovarian.
Assay [5] relates to RXF 393 renal.
The subject of assay [6] is SK-MEL-2 melanoma.
For assay [7], the system named is SNB-75 CNS.
The test system of assay [8] is UACC-257 melanoma.
The subject of assay [9] is UACC-62 melanoma.
Assay [10] concerns MDA-MB-231 breast.

“And” between values parts separate entries of the source, which are not always exact repeats. Identical values can stand only once.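 Each compound was tested at five concentrations against cells in 96-well plates for 48 hours. GI50 marks 50% less growth. TGI marks complete inhibition of growth.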 Where only a bound is given, the exact number is not on record here.

For the molecule `Cc1ccc(NC(=O)CC/C(CC(=O)c2ccc(F)cc2)=N\NC(=O)C(=O)NN)cc1C`, the TGI in assay [1], in assay [2], in assay [3], in [4], in [5] and in [6] was over 100 µM each time. In addition, the TGI in assay [7], in assay [8] and in assay [9] was over 100 µM throughout.
As to `CCC1(C(=O)OC)CCc2c(OC)ccc(OC)c2C1=O` (configuration not stated), the TGI in [1], in [2], in assay [3], in assay [4], in assay [6] and in assay [8] was over 100 µM throughout. Further, the TGI in assay [9] was over 100 µM.
`CN(C)CC/C(=N\Nc1ccc(Cl)c(Cl)c1)c1ccccc1`: the TGI in assay [1] is 3.86 µM; in assay [2], 3.17 µM; in assay [3], 3.06 µM; in assay [4], 6.34 µM; in assay [5], 8.47 µM; in assay [7], 7.08 µM. In addition, the TGI in [8] is 9.61 µM; in assay [9] it was 3.88 µM.
Consider `O=C1[C@@H]2C3SC(c4ccccc43)[C@@H]2C(=O)N1c1ccccc1`, for which the TGI in assay [1], in assay [2], in assay [3], in [4], in assay [5] and in assay [6] was over 100 µM in each case. The TGI in [7] is over 83 µM; in [8], over 100 µM; in assay [9] it was over 100 µM.
As to `CC1(O)CC2(O)C=CC3=C(C(=O)c4cccc(O)c4C3=O)C2(O)C(=O)C1O` (configuration not stated), the TGI was determined as 3.44 µM in assay [1]; 2.71 µM in [2]; 3.37 µM in assay [3]; 11.8 µM in [10]; 9.55 µM in assay [4]; 2.13 µM in assay [5]. Further, the TGI in assay [6] worked out at 9.07 µM; in assay [7], 19.1 µM; in assay [8], 2.67 µM; in [9], 6.88 µM.
As to `NC(=S)NNC(=O)CCC(=O)Nc1ccc(Cl)cc1Cl`, the TGI in [1], in assay [2], in assay [3], in assay [4], in assay [5] and in [6] was over 100 µM throughout. Moreover, the TGI in [7], in [8] and in [9] was over 100 µM each time.
With `CCC[CH2][Ge]([CH2]CCC)([CH2]CCC)[O]C(=O)C(OC)c1ccccc1` (configuration not stated), the GI50 in assay [1] is 7.56 µM; in assay [2] it was 17.2 µM; in assay [3] it was 14.3 µM; in [4], 31.5 µM; in [5] it was 6.9 µM; in assay [6], 42.4 µM. The GI50 in [7] was 41.1 µM; in assay [8], 16.7 µM; in assay [9] it was 30.7 µM. The TGI is 34.4 µM in assay [1]; over 100 µM in assay [2]; 35.1 µM in assay [3]; over 78.3 µM in assay [4]; 27.8 µM in assay [5]; over 100 µM in [6]. Further, the TGI in [7], in assay [8] and in assay [9] was over 100 µM throughout.
`CCOC(=O)C(Cc1ccccc1)NC(=O)OC(C)(C)C` (configuration not stated): the TGI in assay [1], in [3], in assay [4], in assay [6], in assay [7] and in assay [8] was over 100 µM throughout. Also, the TGI in assay [9] was over 100 µM.
As for `CC(C)(C)OC(=O)NC1CCC[C@H]1O` (some centres not stated), the TGI in assay [1], in [2], in [3], in assay [4], in [5] and in assay [6] was over 100 µM each time. Besides, the TGI in assay [7], in [8] and in [9] was over 100 µM in each case.
For `O=C(O)CCCCCO`, the TGI in assay [1], in assay [2], in [3], in assay [4], in assay [5] and in assay [6] was over 100 µM in each case. In addition, the TGI in [7], in assay [8] and in [9] was over 100 µM each time.
Turning to `Nc1nc(N)c(N=O)c(Nc2ccc(I)cc2)n1`, the TGI in [1] was determined as 64.9 µM; in assay [2], 80.6 µM; in assay [3], 51.6 µM; in assay [4], 61 µM; in assay [5], 55.2 µM; in [6], 34.1 µM. Moreover, the TGI turned out to be 70.1 µM in assay [8] and 37.9 µM in [9].
For `Nc1ncnc2c(C3OC(CO)C(O)C3O)scc12` (configuration not stated), the TGI in assay [1] is 0.548 µM and 0.31 µM; in assay [2], 1.07 µM and 1.64 µM; in assay [3], 1.49 µM and 2 µM; in assay [4], 0.787 µM and 0.139 µM; in assay [5] it was 1.39 µM; in [6], 2.14 µM. In assay [7], this molecule had a TGI of 5.5 µM. Further, the figures for the GI50 in assay [3], in assay [6] and in assay [8] were 0.0233 µM, 0.228 µM and 1.11 µM, respectively.
`CC(=O)OC1C/C(C)=C/CCC(C)/C=C/C2(C)CCC(C(C)(C)O)C12` (configuration not stated): the TGI in assay [1] is over 100 µM; in assay [2], over 100 µM; in assay [3], over 100 µM; in [4], over 100 µM; in [5], 53.3 µM; in assay [6], over 100 µM. Also, the TGI in assay [7], in assay [8] and in [9] was over 100 µM each time.
